Test results reported in patent US11234979B2, “Heteroaryl compounds as muscarinic M1 receptor positive allosteric modulators” (SUVEN LIFE SCIENCES LIMITED, priority 2017, dated 2022).

Target: T1, recombinant human Muscarinic M1 receptor (Homo sapiens, UniProt P11229)
T1 construct: expressed in transfected cells
T1 sequence (P11229 1-460): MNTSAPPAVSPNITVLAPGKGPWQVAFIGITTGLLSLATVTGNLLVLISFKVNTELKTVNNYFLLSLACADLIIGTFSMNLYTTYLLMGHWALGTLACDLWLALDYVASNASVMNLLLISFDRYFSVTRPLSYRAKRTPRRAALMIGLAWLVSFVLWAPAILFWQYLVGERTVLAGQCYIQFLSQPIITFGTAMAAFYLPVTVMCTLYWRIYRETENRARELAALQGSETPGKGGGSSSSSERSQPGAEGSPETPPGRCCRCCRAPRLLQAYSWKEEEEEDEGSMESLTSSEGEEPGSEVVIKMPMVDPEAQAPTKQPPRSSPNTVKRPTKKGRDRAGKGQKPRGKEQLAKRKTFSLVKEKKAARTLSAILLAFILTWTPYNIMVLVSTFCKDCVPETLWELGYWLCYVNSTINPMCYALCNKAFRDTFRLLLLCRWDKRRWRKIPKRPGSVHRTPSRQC
Assay: Allosteric potency EC50 for Muscarinic M1 receptor, CHO pCRE-Luc reporter assay with EC20 of acetylcholine
Format: cell-based
Settings: CHO cells, in presence of EC20 of acetylcholine, 4 hours
Experimental: Determination of Allosteric Potency EC50 Values for Muscarinic M1 Receptor:
A stable CHO cell line expressing recombinant human Muscarinic M1 receptor and pCRE-Luc reporter system was used for cell-based assay. The assay offers a non-radioactive based approach to determine binding of a compound to GPCRs. In this specific assay, the level of intracellular cyclic AMP which is modulated by activation or inhibition of the receptor is measured. The recombinant cells harbor luciferase reporter gene under the control of cAMP response element.
The above cells were grown in 96 well clear bottom white plates in Hams F12 medium containing 10% fetal bovine serum (FBS). Prior to the addition of compounds or standard agonist, cells were serum starved overnight. Increasing concentrations of test compounds were added along with EC20 of acetylcholine in OptiMEM medium to the cells. The incubation was continued at 37° C. in CO2 incubator for 4 hours. Medium was removed and cells were washed with phosphate buffered saline. The cells were lysed and luciferase activity was measured in a Luminometer. Luminescence counts in each concentrations of test item were normalized to the acetylcholine induced maximum response and the data was analyzed using Graphpad software. EC50 values of the compounds were defined as the concentration required in stimulating the luciferase activity by 50% in presence of EC20 of acetylcholine.

EC50 [nM] | SMILES
1470 | O=C(N[C@H]1CCCC[C@@H]1O)c1cc(Cc2ccc(Br)cc2)c2cccnn12 [Example 1, N-(cis-1S,2S-2-Hydroxycyclohexyl)-5-(4-bromobenzyl)-pyrrolo[1,2-b]pyridazine-7-carboxamide]
419 | O=C(N[C@H]1CCCC[C@@H]1O)c1cc(Cc2cc(Br)ccc2F)c2cccnn12 [Example 2, N-(cis-1S,2S-2-Hydroxycyclohexyl)-5-(5-bromo-2-fluorobenzyl)-pyrrolo[1,2-b]pyridazine-7-carboxamide]
2130 | O=C(N[C@H]1CCCC[C@@H]1O)c1cc(Cc2ccc(Br)nc2)c2cccnn12 [Example 5, N-(cis-1S,2S-2-Hydroxycyclohexyl)-5-(2-bromo-pyridin-5-ylmethyl)-pyrrolo[1,2-b]pyridazine-7-carboxamide]
3030 | COc1cccc(Cc2cc(C(=O)N[C@H]3CCCC[C@@H]3O)n3ncccc23)c1 [Example 6, N-(cis-1S,2S-2-Hydroxycyclohexyl)-5-(3-methoxybenzyl)-pyrrolo[1,2-b]pyridazine-7-carboxamide]
863 | O=C(N[C@H]1CCCC[C@@H]1O)c1cc(Cc2ccc(F)cc2)c2cccnn12 [Example 8, N-(cis-1S,2S-2-Hydroxycyclohexyl)-5-(4-fluorobenzyl)-pyrrolo[1,2-b]pyridazine-7-carboxamide]
1510 | O=C(N[C@H]1CCCC[C@@H]1O)c1cc(Cc2ccc(F)c(F)c2)c2cccnn12 [Example 15, N-(cis-1S,2S-2-Hydroxycyclohexyl)-5-(3,4-difluorobenzyl)-pyrrolo[1,2-b]pyridazine-7-carboxamide]
2760 | O=C(N[C@H]1CCCC[C@@H]1O)c1cc(Cc2ccc(Cl)nc2)c2cccnn12 [Example 16, N-(cis-1S,2S-2-Hydroxycyclohexyl)-5-(2-chloro-pyridin-5-ylmethyl)-pyrrolo[1,2-b]pyridazine-7-carboxamide]
2100 | O=C(N[C@H]1CCCC[C@@H]1O)c1cc(Cc2cccc(F)c2)c2cccnn12 [Example 19, N-(cis-1S,2S-2-Hydroxycyclohexyl)-5-(3-fluorobenzyl)-pyrrolo[1,2-b]pyridazine-7-carboxamide]
119 | O=C(N[C@H]1CCCC[C@@H]1O)c1cc(Cc2ccc(-c3cscn3)cc2)c2cccnn12 [Example 23, N-(cis-1S,2S-2-Hydroxycyclohexyl)-5-(4-thiazol-4-ylbenzyl)-pyrrolo[1,2-b]pyridazine-7-carboxamide]
1180 | O=C(N[C@H]1CCCC[C@@H]1O)c1cc(Cc2ccc(F)cc2Br)c2cccnn12 [Example 24, N-(cis-1S,2S-2-Hydroxycyclohexyl)-5-(2-bromo-4-fluorobenzyl)-pyrrolo[1,2-b]pyridazine-7-carboxamide]
643 | O=C(N[C@H]1CCCC[C@@H]1O)c1cc(Cc2ccc(F)c(Br)c2)c2cccnn12 [Example 26, N-(cis-1S,2S-2-Hydroxycyclohexyl)-5-(3-bromo-4-fluorobenzyl)-pyrrolo[1,2-b]pyridazine-7-carboxamide]
1700 | O=C(N[C@H]1CCCC[C@@H]1O)c1cc(Cc2cccc(Br)c2)c2cccnn12 [Example 27, N-(cis-1S,2S-2-Hydroxycyclohexyl)-5-(3-bromobenzyl)-pyrrolo[1,2-b]pyridazine-7-carboxamide]
1010 | O=C(N[C@H]1CCCC[C@@H]1O)c1cc(Cc2ccnc(Br)c2)c2cccnn12 [Example 29, N-(cis-1S,2S-2-Hydroxycyclohexyl)-5-(2-bromopyridin-4-ylmethyl)-pyrrolo[1,2-b]pyridazine-7-carboxamide]
1030 | O=C(NC1CCOCC1O)c1cc(Cc2ccc(Br)cc2)c2cccnn12 (stereo not shown) [Example 31, N-(3-Hydroxytetrahydropyran-4-yl)-5-(4-bromobenzyl)-pyrrolo[1,2-b]pyridazine-7-carboxamide]

The remaining lines, values behind:

SMILES | EC50 [nM]
O=C(N[C@H]1CCCC[C@@H]1O)c1cc(Cc2ccc(F)cc2F)c2cccnn12 [Example 7, N-(cis-1S,2S-2-Hydroxycyclohexyl)-5-(2,4-difluorobenzyl)-pyrrolo[1,2-b]pyridazine-7-carboxamide] | 779
O=C(N[C@H]1CCCC[C@@H]1O)c1cc(Cc2cccc(F)c2F)c2cccnn12 [Example 9, N-(cis-1S,2S-2-Hydroxycyclohexyl)-5-(2,3-difluorobenzyl)-pyrrolo[1,2-b]pyridazine-7-carboxamide] | 2110
COc1ccc(Cc2cc(C(=O)N[C@H]3CCCC[C@@H]3O)n3ncccc23)cc1F [Example 10, N-(cis-1S,2S-2-Hydroxycyclohexyl)-5-(3-fluoro-4-methoxybenzyl)-pyrrolo[1,2-b]pyridazine-7-carboxamide] | 1220
O=C(N[C@H]1CCCC[C@@H]1O)c1cc(Cc2ccnc(Cl)c2)c2cccnn12 [Example 11, N-(cis-1S,2S-2-Hydroxycyclohexyl)-5-(2-chloro-pyridin-4-ylmethyl)-pyrrolo[1,2-b]pyridazine-7-carboxamide] | 1300
COc1cc(Cc2cc(C(=O)N[C@H]3CCCC[C@@H]3O)n3ncccc23)ccc1F [Example 12, N-(cis-1S,2S-2-Hydroxycyclohexyl)-5-(4-fluoro-3-methoxybenzyl)-pyrrolo[1,2-b]pyridazine-7-carboxamide] | 1340
O=C(N[C@H]1CCCC[C@@H]1O)c1cc(Cc2ccccc2F)c2cccnn12 [Example 13, N-(cis-1S,2S-2-Hydroxycyclohexyl)-5-(2-fluorobenzyl)-pyrrolo[1,2-b]pyridazine-7-carboxamide] | 1760
COc1ccc(Cc2cc(C(=O)N[C@H]3CCCC[C@@H]3O)n3ncccc23)c(F)c1 [Example 14, N-(cis-1S,2S-2-Hydroxycyclohexyl)-5-(2-fluoro-4-methoxybenzyl)-pyrrolo[1,2-b]pyridazine-7-carboxamide] | 1080
O=C(NC1CCOCC1)c1cc(Cc2ccc(Cl)nc2)c2cccnn12 [Example 17, N-(Tetrahydropyran-4-yl)-5-(2-chloropyridin-5-ylmethyl)-pyrrolo[1,2-b]pyridazine-7-carboxamide] | 10000
COc1cccc(Cc2cc(C(=O)N[C@H]3CCCC[C@@H]3O)n3ncccc23)c1F [Example 18, N-(cis-1S,2S-2-Hydroxycyclohexyl)-5-(2-fluoro-3-methoxybenzyl)-pyrrolo[1,2-b]pyridazine-7-carboxamide] | 3720
O=C(NC1CCOCC1)c1cc(Cc2ccc(-n3cccn3)cc2)c2cccnn12 [Example 22, N-(Tetrahydropyran-4-yl)-5-(4-pyrazol-1-ylbenzyl)-pyrrolo[1,2-b]pyridazine-7-carboxamide] | 1760
O=C(N[C@H]1CCCC[C@@H]1O)c1cc(Cc2ccc(Br)c(F)c2F)c2cccnn12 [Example 25, N-(cis-1S,2S-2-Hydroxycyclohexyl)-5-(2,3-difluoro-4-bromobenzyl)-pyrrolo[1,2-b]pyridazine-7-carboxamide] | 2290
O=C(N[C@H]1CCCC[C@@H]1O)c1cc(Cc2cccnc2Cl)c2cccnn12 [Example 28, N-(cis-1S,2S-2-Hydroxycyclohexyl)-5-(2-chloropyridin-3-ylmethyl)-pyrrolo[1,2-b]pyridazine-7-carboxamide] | 10000
O=C(NC1CCOCC1O)c1cc(Cc2cccc(F)c2)c2cccnn12 (stereo not shown) [Example 30, N-(3-Hydroxytetrahydropyran-4-yl)-5-(3-fluorobenzyl)-pyrrolo[1,2-b]pyridazine-7-carboxamide] | 1650
Cn1cc(-c2ccc(Cc3cc(C(=O)N[C@H]4CCCC[C@@H]4O)n4ncccc34)cn2)cn1 [Example 35, N-(cis-1S,2S-2-Hydroxycyclohexyl)-5-[6-(1-methyl-1H-pyrazol-4-yl)-pyridin-3-ylmethyl]-pyrrolo[1,2-b]pyridazine-7-carboxamide] | 599
Cn1cc(-c2ccc(Cc3cc(C(=O)N[C@H]4CCCC[C@@H]4O)n4ncccc34)c(F)c2F)cn1 [Example 36, N-(cis-1S,2S-2-Hydroxycyclohexyl)-5-[2,3-difluoro-4-(1-methyl-1H-pyrazol-4-yl)-benzyl]-pyrrolo[1,2-b]pyridazine-7-carboxamide] | 94
Cn1cc(-c2cc(Cc3cc(C(=O)N[C@H]4CCCC[C@@H]4O)n4ncccc34)ccc2F)cn1 [Example 37, N-(cis-1S,2S-2-Hydroxycyclohexyl)-5-[4-fluoro-3-(1-methyl-1H-pyrazol-4-yl)-benzyl]-pyrrolo[1,2-b]pyridazine-7-carboxamide] | 1000
Cn1cc(-c2cccc(Cc3cc(C(=O)N[C@H]4CCCC[C@@H]4O)n4ncccc34)c2)cn1 [Example 38, N-(cis-1S,2S-2-Hydroxycyclohexyl)-5-[3-(1-methyl-1H-pyrazol-4-yl)-benzyl]-pyrrolo[1,2-b]pyridazine-7-carboxamide] | 1530
